Where two headings read alike, the source gives them in different places. Numbered stars: 1 amine (or outer) side, 2 acyl side, 3 side chain; on linkers, the order of the positions; unused ones are H or OH. Bridge positions count the residues as written; N and C are the ends. Square brackets hold non-standard residues; d marks the D form. Peptide text beside a SMILES is read from it. I, II: the chains in the order shown. Phe(4-tBu) = CC(C)(C)c1ccc(C[C@H](N)C(=O)O)cc1; 2Nal = N[C@@H](Cc1ccc2ccccc2c1)C(=O)O; Diglycolyl = O=C(COCC(=O)[*:2])[*:1]; NMeR = CN[C@@H](CCCNC(=N)N)C(=O)O; β3hE = N[C@@H](CCC(=O)O)CC(=O)O; NMeK = CN[C@@H](CCCCN)C(=O)O; Pen = CC(C)(S)[C@H](N)C(=O)O
How the values were obtained:
[1] = target: α4β7 (Homo sapiens, UniProt P13612+P26010); assay: PBMC Memory T Cell Adhesion Assay, adhesion to MAdCAM-1; type: cell-based; conditions: Table 3-B; range classes; read-out: PBMC IC50
Chain of α4β7 (P13612 34-1032): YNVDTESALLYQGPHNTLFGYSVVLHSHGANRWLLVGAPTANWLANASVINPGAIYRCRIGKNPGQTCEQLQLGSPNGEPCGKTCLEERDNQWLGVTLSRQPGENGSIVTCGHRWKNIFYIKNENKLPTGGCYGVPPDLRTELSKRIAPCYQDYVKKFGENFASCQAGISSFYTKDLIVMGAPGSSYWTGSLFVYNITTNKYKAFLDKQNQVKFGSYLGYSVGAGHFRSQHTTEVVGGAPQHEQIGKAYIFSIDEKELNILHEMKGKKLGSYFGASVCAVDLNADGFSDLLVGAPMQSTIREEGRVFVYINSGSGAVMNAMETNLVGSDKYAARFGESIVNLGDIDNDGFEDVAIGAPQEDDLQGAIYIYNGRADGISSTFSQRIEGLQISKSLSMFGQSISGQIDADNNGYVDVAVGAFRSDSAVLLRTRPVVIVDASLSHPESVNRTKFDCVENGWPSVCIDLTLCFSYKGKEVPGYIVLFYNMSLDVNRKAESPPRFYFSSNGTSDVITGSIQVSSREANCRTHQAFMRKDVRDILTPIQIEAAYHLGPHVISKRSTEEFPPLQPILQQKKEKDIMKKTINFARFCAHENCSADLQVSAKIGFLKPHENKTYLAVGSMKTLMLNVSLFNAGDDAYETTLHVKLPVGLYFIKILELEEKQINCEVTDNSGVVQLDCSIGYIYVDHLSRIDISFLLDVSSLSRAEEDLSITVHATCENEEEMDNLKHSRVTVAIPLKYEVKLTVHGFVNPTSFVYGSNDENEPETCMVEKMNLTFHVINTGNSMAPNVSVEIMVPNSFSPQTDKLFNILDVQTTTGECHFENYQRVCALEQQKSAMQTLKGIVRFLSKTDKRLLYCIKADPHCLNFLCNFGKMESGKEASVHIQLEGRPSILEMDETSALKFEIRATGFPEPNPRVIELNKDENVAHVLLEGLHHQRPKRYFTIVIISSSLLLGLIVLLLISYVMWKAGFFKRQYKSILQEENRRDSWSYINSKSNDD
Chain of α4β7 (P26010 20-798): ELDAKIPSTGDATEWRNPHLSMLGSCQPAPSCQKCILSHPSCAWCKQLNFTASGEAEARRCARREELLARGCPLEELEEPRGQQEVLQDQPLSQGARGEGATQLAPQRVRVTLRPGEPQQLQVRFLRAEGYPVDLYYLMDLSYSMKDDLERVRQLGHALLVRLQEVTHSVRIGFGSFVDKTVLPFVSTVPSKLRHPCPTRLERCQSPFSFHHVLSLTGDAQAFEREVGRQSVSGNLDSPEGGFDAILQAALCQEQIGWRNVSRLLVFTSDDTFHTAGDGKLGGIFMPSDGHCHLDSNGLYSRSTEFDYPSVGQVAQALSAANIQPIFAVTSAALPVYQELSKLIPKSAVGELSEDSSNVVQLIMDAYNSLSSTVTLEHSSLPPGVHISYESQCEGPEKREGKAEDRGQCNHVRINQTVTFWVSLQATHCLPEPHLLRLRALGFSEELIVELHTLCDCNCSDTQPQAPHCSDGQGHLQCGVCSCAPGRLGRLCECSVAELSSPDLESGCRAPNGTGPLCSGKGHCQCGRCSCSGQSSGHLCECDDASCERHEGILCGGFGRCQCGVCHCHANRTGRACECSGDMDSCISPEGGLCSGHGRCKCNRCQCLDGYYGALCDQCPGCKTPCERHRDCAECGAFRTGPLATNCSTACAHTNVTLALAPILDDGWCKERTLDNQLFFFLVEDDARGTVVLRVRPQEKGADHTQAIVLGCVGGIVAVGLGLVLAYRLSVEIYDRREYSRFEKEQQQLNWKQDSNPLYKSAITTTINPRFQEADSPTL
In short: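 Fresh human CD4+/CD45RO+ memory T cells in binding medium with 1 mM MnCl2 were preincubated with compound for 1.5 h at 37° C. on plates coated with Fc-captured MAdCAM-1 (400 ng/well). Adherent cells were read by fluorescence (Ex 485/Em 530). IC50 came from four-parameter nonlinear regression of RFU versus log concentration.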

[2] = target: T1, α4β1 (Homo sapiens, UniProt P05556+P13612, DEL729-798); assay: α4β1-VCAM Competition ELISA; type: binding
T1 construct: purchased R&D Systems 5668-A4
T1 sequence (P13612 34-977 limits assumed, stated change not applied): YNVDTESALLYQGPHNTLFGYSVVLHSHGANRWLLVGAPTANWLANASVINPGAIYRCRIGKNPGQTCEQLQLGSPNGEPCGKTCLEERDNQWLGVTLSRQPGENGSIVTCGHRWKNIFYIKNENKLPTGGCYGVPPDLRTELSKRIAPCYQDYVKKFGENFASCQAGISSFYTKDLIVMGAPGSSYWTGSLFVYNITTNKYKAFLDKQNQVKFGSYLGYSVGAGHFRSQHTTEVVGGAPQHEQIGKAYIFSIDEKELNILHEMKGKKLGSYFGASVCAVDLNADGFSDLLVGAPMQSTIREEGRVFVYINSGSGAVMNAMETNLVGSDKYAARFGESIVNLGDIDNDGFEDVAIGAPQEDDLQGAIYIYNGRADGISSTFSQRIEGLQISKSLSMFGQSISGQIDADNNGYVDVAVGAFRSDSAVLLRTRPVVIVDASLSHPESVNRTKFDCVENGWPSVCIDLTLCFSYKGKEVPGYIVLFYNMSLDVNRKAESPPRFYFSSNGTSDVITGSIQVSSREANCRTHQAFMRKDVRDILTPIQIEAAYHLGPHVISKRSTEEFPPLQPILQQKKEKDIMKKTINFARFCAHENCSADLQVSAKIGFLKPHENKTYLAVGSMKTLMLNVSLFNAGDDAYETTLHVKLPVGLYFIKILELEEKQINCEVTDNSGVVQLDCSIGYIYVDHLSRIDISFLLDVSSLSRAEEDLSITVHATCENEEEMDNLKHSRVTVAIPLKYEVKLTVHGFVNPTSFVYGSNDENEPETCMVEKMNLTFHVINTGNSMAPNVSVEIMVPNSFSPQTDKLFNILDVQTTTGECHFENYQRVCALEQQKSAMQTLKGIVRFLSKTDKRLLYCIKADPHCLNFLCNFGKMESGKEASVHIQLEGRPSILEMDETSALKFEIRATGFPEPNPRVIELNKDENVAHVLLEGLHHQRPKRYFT
T1 sequence (P05556 21-728 limits assumed, stated change not applied): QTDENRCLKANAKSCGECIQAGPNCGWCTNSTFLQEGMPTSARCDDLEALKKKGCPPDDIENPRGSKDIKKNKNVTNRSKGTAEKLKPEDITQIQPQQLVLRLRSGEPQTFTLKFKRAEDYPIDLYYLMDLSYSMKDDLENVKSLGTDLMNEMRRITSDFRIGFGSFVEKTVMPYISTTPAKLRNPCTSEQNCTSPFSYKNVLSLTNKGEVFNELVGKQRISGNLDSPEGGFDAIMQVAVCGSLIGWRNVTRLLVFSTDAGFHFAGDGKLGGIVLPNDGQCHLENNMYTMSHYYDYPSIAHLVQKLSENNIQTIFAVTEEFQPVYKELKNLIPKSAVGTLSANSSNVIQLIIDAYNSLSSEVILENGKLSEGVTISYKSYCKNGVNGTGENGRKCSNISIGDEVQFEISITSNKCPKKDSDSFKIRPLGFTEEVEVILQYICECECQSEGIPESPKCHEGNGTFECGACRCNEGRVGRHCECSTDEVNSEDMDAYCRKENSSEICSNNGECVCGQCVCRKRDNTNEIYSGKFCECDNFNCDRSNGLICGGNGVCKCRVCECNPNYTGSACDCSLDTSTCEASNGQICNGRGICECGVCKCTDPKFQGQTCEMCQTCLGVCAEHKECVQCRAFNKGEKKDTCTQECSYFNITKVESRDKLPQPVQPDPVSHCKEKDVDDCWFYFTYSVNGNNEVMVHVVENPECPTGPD
In short: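 Recombinant α4β1 (60 nM final) competed with serially diluted peptides (top final 100 μM) for VCAM-1 Fc coated at 400 ng/well, in Tris pH 7.6 with 1 mM MnCl2 or MgCl2, for 2 h at 37 °C. Bound integrin was detected with anti-CD49d 9F10 plus HRP anti-mouse IgG, using TMB read at 450 nm.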

[3] = Simulated Gastric Fluid (SGF) Assay; type: in vitro ADME; conditions: pig, simulated gastric fluid (SGF) with porcine pepsin, pH 2; Table 4-C, t1/2
Experimental: SGF was prepared by adding 20 mg NaCl, 32 mg porcine pepsin (MP Biochemicals, catalog 02102599), and 70 μl HCl to 10 ml water (final pH=2). Aliquots of SGF (0.5 ml each) were pre-warmed at 37° C. For each peptide tested, to start the reaction, 1 μl of peptide stock solution (10 mM in DMSO) was added to 0.5 ml SGF and thoroughly mixed such that the final peptide concentration was 20 μM. The reactions were incubated at 37° C. with gentle shaking. At each time point (0, 15, 30, 60 min), 50 μl aliquots were removed and added to 200 ul acetonitrile containing 0.1% formic acid to quench the reaction. Samples were stored at 4° C. until the end of the experiment and centrifuged at 10,000 rpm for 5 minutes. Aliquots of the supernatant were removed, diluted 1:1 into distilled water containing internal standard, and analyzed by LCMS/MS. Percent remaining at each timepoint was calculated based on the peak area response ratio of test compound to internal standard. Time 0 was set to 100%, and all later timepoints were calculated relative to time 0. Half-lives were calculated by fitting to a first-order exponential decay equation using GraphPad.

[4] = Table 3-B, Selectivity (α4β1), range classes, read-out: α4β1 ELISA IC50
[5] = Table 4-B, read-out: ELISA_α4β1 IC50

CC(=O)N[C@@H]1C(=O)N(C)[C@@H](CCCNC(=N)N)C(=O)N[C@@H](CO)C(=O)N[C@@H](CC(=O)O)C(=O)N[C@@H]([C@@H](C)O)C(=O)N[C@@H](CC(C)C)C(=O)N[C@H](C(=O)N[C@@H](Cc2ccc(C(C)(C)C)cc2)C(=O)N[C@@H](CCC(=O)O)CC(=O)N(C)[C@@H](CCCCNC(=O)COCC(=O)NCCCC[C@@H](C(N)=O)N(C)C(=O)C[C@H](CCC(=O)O)NC(=O)[C@H](Cc2ccc(C(C)(C)C)cc2)NC(=O)[C@H]2NC(=O)[C@H](CC(C)C)NC(=O)[C@H]([C@@H](C)O)NC(=O)[C@H](CC(=O)O)NC(=O)[C@H](CO)NC(=O)[C@H](CCCNC(=N)N)N(C)C(=O)[C@@H](NC(C)=O)C(C)(C)SSC2(C)C)C(N)=O)C(C)(C)SSC1(C)C [compound 149] (I: Ac-[Pen][NMeR]SDTL[Pen][Phe(4-tBu)][β3hE][NMeK]-NH2 / II: Ac-[Pen][NMeR]SDTL[Pen][Phe(4-tBu)][β3hE][NMeK]-NH2; disulfide I:1-I:7, II:1-II:7; linker I:10-II:10 via Diglycolyl)
IC50 [1]: < 10 nM | IC50 [2, 4]: 500 to 1000 nM

CC(=O)N[C@@H]1C(=O)N(C)[C@@H](CCCNC(=N)N)C(=O)N[C@@H](CO)C(=O)N[C@@H](CC(=O)O)C(=O)N[C@@H]([C@@H](C)O)C(=O)N[C@@H](CC(C)C)C(=O)N[C@H](C(=O)N[C@@H](Cc2ccc(C(C)(C)C)cc2)C(=O)N[C@@H](CCC(=O)O)CC(=O)O)C(C)(C)SSC1(C)C [compound 152] (Ac-[Pen][NMeR]SDTL[Pen][Phe(4-tBu)][β3hE]-OH; disulfide 1-7)
IC50 [1]: 25 to 50 nM | IC50 [2, 4]: 100 to 500 nM

CC(=O)N[C@H]1CSSC[C@@H](C(=O)NCC(=O)N[C@@H](CCC(=O)O)C(=O)N[C@@H](CCCCN)C(=O)O)NC(=O)[C@H](CC(C)C)NC(=O)[C@H]([C@@H](C)O)NC(=O)[C@H](CC(=O)O)NC(=O)[C@H](CO)NC(=O)[C@H](CCCNC(=N)N)N(C)C1=O [compound 199, Ac-C-N-Me-R-S-D-T-L-C-G-E-K-OH] (Ac-C[NMeR]SDTLCGEK-OH; disulfide 1-7)
IC50 [2, 5]: > 100000 nM | half-life at 20 μM [3]: > 6 h

CC(=O)N[C@H]1CSSC[C@@H](C(=O)NCC(=O)N[C@@H](CCC(=O)O)C(=O)N[C@@H](CCCCNC(=O)COCC(=O)NCCCC[C@H](NC(=O)[C@H](CCC(=O)O)NC(=O)CNC(=O)[C@@H]2CSSC[C@H](NC(C)=O)C(=O)N(C)[C@@H](CCCNC(=N)N)C(=O)N[C@@H](CO)C(=O)N[C@@H](CC(=O)O)C(=O)N[C@@H]([C@@H](C)O)C(=O)N[C@@H](CC(C)C)C(=O)N2)C(=O)O)C(=O)O)NC(=O)[C@H](CC(C)C)NC(=O)[C@H]([C@@H](C)O)NC(=O)[C@H](CC(=O)O)NC(=O)[C@H](CO)NC(=O)[C@H](CCCNC(=N)N)N(C)C1=O [compound 201, (Ac-C-N-Me-R-S-D-T-L-C-G-E-K-OH)2-DIG] (I: Ac-C[NMeR]SDTLCGEK-OH / II: Ac-C[NMeR]SDTLCGEK-OH; disulfide I:1-I:7, II:1-II:7 (inferred); linker I:10-II:10 via Diglycolyl (inferred))
IC50 [2, 5]: 1240 nM | half-life at 20 μM [3]: > 6 h

CC(=O)N[C@@H]1C(=O)N[C@@H](CCCNC(=N)N)C(=O)N[C@@H](CO)C(=O)N[C@@H](CC(=O)O)C(=O)N[C@@H]([C@@H](C)O)C(=O)N[C@@H](CC(C)C)C(=O)N[C@H](C(=O)N[C@H](CCCCNC(=O)COCC(=O)NCCCC[C@@H](NC(=O)[C@@H]2CSSC(C)(C)[C@H](NC(C)=O)C(=O)N[C@@H](CCCNC(=N)N)C(=O)N[C@@H](CO)C(=O)N[C@@H](CC(=O)O)C(=O)N[C@@H]([C@@H](C)O)C(=O)N[C@@H](CC(C)C)C(=O)N2)C(N)=O)C(N)=O)CSSC1(C)C [compound 207, (Ac-Pen-R-S-D-T-L-C-k-NH2)2-DIG] (I: Ac-[Pen]RSDTLC[dK]-NH2 / II: Ac-[Pen]RSDTLC[dK]-NH2; disulfide I:1-I:7, II:1-II:7 (inferred); linker I:8-II:8 via Diglycolyl (inferred))
half-life at 20 μM [3]: > 1 h

CC(=O)N[C@@H]1C(=O)N(C)[C@@H](CCCNC(=N)N)C(=O)N[C@@H](CO)C(=O)N[C@@H](CC(=O)O)C(=O)N[C@@H]([C@@H](C)O)C(=O)N[C@@H](CC(C)C)C(=O)N[C@H](C(=O)N[C@@H](Cc2c[nH]c3ccccc23)C(=O)N[C@H](CCCCN)C(N)=O)C(C)(C)SSC1(C)C [compound 208, Ac-Pen-N-Me-R-S-D-T-L-Pen-W-k-NH2] (Ac-[Pen][NMeR]SDTL[Pen]W[dK]-NH2; disulfide 1-7)
half-life at 20 μM [3]: > 6 h

CC(=O)N[C@@H]1C(=O)N(C)[C@@H](CCCNC(=N)N)C(=O)N[C@@H](CO)C(=O)N[C@@H](CC(=O)O)C(=O)N[C@@H]([C@@H](C)O)C(=O)N[C@@H](CC(C)C)C(=O)N[C@H](C(=O)N[C@@H](Cc2c[nH]c3ccccc23)C(=O)N[C@H](CCC(=O)O)C(=O)N[C@H](CCCCNC(=O)COCC(=O)NCCCC[C@@H](NC(=O)[C@@H](CCC(=O)O)NC(=O)[C@H](Cc2c[nH]c3ccccc23)NC(=O)[C@H]2NC(=O)[C@H](CC(C)C)NC(=O)[C@H]([C@@H](C)O)NC(=O)[C@H](CC(=O)O)NC(=O)[C@H](CO)NC(=O)[C@H](CCCNC(=N)N)N(C)C(=O)[C@@H](NC(C)=O)C(C)(C)SSC2(C)C)C(N)=O)C(N)=O)C(C)(C)SSC1(C)C [compound 211, (Ac-Pen-N-Me-R-S-D-T-L-Pen-W-e-k-NH2)2-DIG] (I: Ac-[Pen][NMeR]SDTL[Pen]W[dE][dK]-NH2 / II: Ac-[Pen][NMeR]SDTL[Pen]W[dE][dK]-NH2; disulfide I:1-I:7, II:1-II:7 (inferred); linker I:10-II:10 via Diglycolyl (inferred))
IC50 [2, 5]: 302 nM | half-life at 20 μM [3]: > 1 h

CC(=O)N[C@@H]1C(=O)N(C)[C@@H](CCCNC(=N)N)C(=O)N[C@@H](CO)C(=O)N[C@@H](CC(=O)O)C(=O)N[C@@H]([C@@H](C)O)C(=O)N[C@@H](CC(C)C)C(=O)N[C@H](C(=O)N[C@@H](Cc2ccc3ccccc3c2)C(=O)N[C@@H](CCC(=O)O)C(=O)N[C@H](CCCCNC(=O)COCC(=O)NCCCC[C@@H](NC(=O)[C@H](CCC(=O)O)NC(=O)[C@H](Cc2ccc3ccccc3c2)NC(=O)[C@H]2NC(=O)[C@H](CC(C)C)NC(=O)[C@H]([C@@H](C)O)NC(=O)[C@H](CC(=O)O)NC(=O)[C@H](CO)NC(=O)[C@H](CCCNC(=N)N)N(C)C(=O)[C@@H](NC(C)=O)C(C)(C)SSC2(C)C)C(N)=O)C(N)=O)C(C)(C)SSC1(C)C [compound 212, (Ac-Pen-N-Me-R-S-D-T-L-Pen-2-Nal-E-k-NH2)2-DIG] (I: Ac-[Pen][NMeR]SDTL[Pen][2Nal]E[dK]-NH2 / II: Ac-[Pen][NMeR]SDTL[Pen][2Nal]E[dK]-NH2; disulfide I:1-I:7, II:1-II:7 (inferred); linker I:10-II:10 via Diglycolyl (inferred))
IC50 [2, 5]: 70 nM | half-life at 20 μM [3]: 0.65 h

— patent US9809623B2, “α4β7 peptide monomer and dimer antagonists” (Protagonist Therapeutics, Inc., priority 2014, dated 2017)
